In ChEMBL document CHEMBL1201862, “PubChem BioAssay data set” (2004):
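Protocol summary: plate cells (96-well), add compound at 5 concentrations, incubate 48 h, interpolate endpoints linearly. GI50 is the concentration that inhibits growth by half.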 Active and inactive are the calls of the source. No stated cut-off is given here; in the data, active = GI50 up to about 1.1 µM and inactive = higher.

How the values were obtained:
Assay in all cases: NCI tumour cell line growth inhibition, 48 h
[1] = tested on: A549
[2] = tested on: U-251
[3] = tested on: NCI-H226
[4] = tested on: UO-31
[5] = tested on: 786-0
[6] = tested on: HCT-116
[7] = tested on: HCT-15
[8] = tested on: HOP-92
[9] = tested on: DLD-1
[10] = tested on: CAKI-1
[11] = tested on: SNB-19
[12] = tested on: NCI-H460
[13] = tested on: LOX IMVI
[14] = tested on: MOLT-4
[15] = tested on: SK-MEL-2
[16] = tested on: HL-60
[17] = tested on: SR
[18] = tested on: PC-3
[19] = tested on: MDA-N
[20] = tested on: T47D

SMILES	GI50 [1]	GI50 [2]	GI50 [3]	GI50 [4]	GI50 [5]	GI50 [6]	GI50 [7] [µM]	GI50 [8]	GI50 [9]	GI50 [10]	GI50 [11]	GI50 [12]	GI50 [13]	GI50 [14]	GI50 [15]	GI50 [16]	GI50 [17]	GI50 [18]	GI50 [19]	GI50 [20]
COC(=O)C(C(=O)C(=O)Nc1nc2ccc(OC)cc2s1)c1cnc2ccccc2n1 (stereo unspecified)	> 100 µM (inactive)	> 100 µM (inactive)	> 100 µM (inactive)	> 100 µM (inactive)	> 100 µM (inactive)	> 100 µM (inactive)	> 100	> 100 µM (inactive)	> 100 µM (inactive)	> 100 µM (inactive)	> 100 µM (inactive)	> 100 µM (inactive)	> 100 µM (inactive)	> 100 µM (inactive)						
CCOc1ccc(NC2=NC(=O)C(CC(=O)Nc3ccc(Cl)cc3Cl)S2)cc1 (stereo unspecified)	> 100 µM (inactive)	> 100 µM (inactive)		> 100 µM (inactive)	> 100 µM (inactive)		> 100		> 100 µM (inactive)	> 100 µM (inactive)	> 100 µM (inactive)	> 100 µM (inactive)	> 100 µM (inactive)	43.8 µM (inactive)	> 100 µM (inactive)					
O=C(Nc1nc2ncn(CCNCCn3cnc4nc(NC(=O)c5ccccc5)[nH]c(=O)c43)c2c(=O)[nH]1)c1ccccc1	> 100 µM (inactive)	> 100 µM (inactive)	> 100 µM (inactive)	> 100 µM (inactive)	> 100 µM (inactive)	> 100 µM (inactive)	> 100	> 100 µM (inactive)	> 100 µM (inactive)	> 100 µM (inactive)	> 100 µM (inactive)	> 100 µM (inactive)	> 100 µM (inactive)	> 100 µM (inactive)	> 100 µM (inactive)	> 100 µM (inactive)				
CCCCOC(=O)NC(=O)c1cn(CCSCCOC(=O)NCCCCCCNC(=O)OCCSCCn2cc(C(=O)NC(=O)OCCCC)c(=O)[nH]c2=O)c(=O)[nH]c1=O	> 100 µM (inactive)	23.4 µM (inactive)		> 100 µM (inactive)	32.3 µM (inactive)	73.8 µM (inactive)	> 100	21.5 µM (inactive)	> 100 µM (inactive)		26.6 µM (inactive)	> 100 µM (inactive)	> 100 µM (inactive)		56.9 µM (inactive)	> 100 µM (inactive)	54.6 µM (inactive)			
COc1ccc(CC#N)c(OCc2ccccc2)c1	78.3 µM (inactive)		6.73 µM (inactive)	42.2 µM (inactive)	> 100 µM (inactive)	33.2 µM (inactive)			28.1 µM (inactive)	> 100 µM (inactive)	40.6 µM (inactive)	61 µM (inactive)	43.8 µM (inactive)	30.3 µM (inactive)		> 10 µM (inactive)	33.4 µM (inactive)			
Cc1cc(C)nc(NS(=O)(=O)c2ccc(Nc3c4ccccc4nc4ccc(C(=O)Nc5ccc(S(=O)(=O)N=C(N)N)cc5)cc34)cc2)n1	> 100 µM (inactive)	60.7 µM (inactive)	> 100 µM (inactive)	82.4 µM (inactive)	23.3 µM (inactive)	70.1 µM (inactive)	33.3	26 µM (inactive)		> 100 µM (inactive)	> 100 µM (inactive)	36 µM (inactive)	17 µM (inactive)	32.3 µM (inactive)	> 100 µM (inactive)	34.3 µM (inactive)	44.6 µM (inactive)	> 100 µM (inactive)	> 100 µM (inactive)	38.2 µM (inactive)
COc1cc2ccc(CC(=O)O)cc2cc1OC	> 100 µM (inactive)	> 100 µM (inactive)	> 100 µM (inactive)	> 100 µM (inactive)	> 100 µM (inactive)	> 100 µM (inactive)	> 100		> 100 µM (inactive)	> 100 µM (inactive)	> 100 µM (inactive)			> 100 µM (inactive)	> 100 µM (inactive)	> 100 µM (inactive)	> 100 µM (inactive)			
COC(=O)[C@@]12CC(C(C)C)[C@H]3CC(C(=O)C=C1OC)[C@H]32 (stereo partly specified)	> 100 µM (inactive)	> 100 µM (inactive)			> 100 µM (inactive)	> 100 µM (inactive)	> 100	> 100 µM (inactive)	> 100 µM (inactive)	> 100 µM (inactive)	> 100 µM (inactive)	> 100 µM (inactive)		> 100 µM (inactive)	> 100 µM (inactive)	> 100 µM (inactive)				
O=[N+]([O-])c1cccc(C2=NN(c3ccccc3)C3c4cc(Br)ccc4OCC23)c1 (stereo unspecified)	> 100 µM (inactive)	> 100 µM (inactive)		17.3 µM (inactive)	> 100 µM (inactive)	45.9 µM (inactive)		12 µM (inactive)	> 100 µM (inactive)		> 100 µM (inactive)	> 100 µM (inactive)	> 100 µM (inactive)	> 100 µM (inactive)	> 100 µM (inactive)	> 100 µM (inactive)				
CN(C)c1snc2c1c(=O)n(C)c(=O)n2C	> 100 µM (inactive)	> 100 µM (inactive)	65.2 µM (inactive)	> 100 µM (inactive)	> 100 µM (inactive)	> 100 µM (inactive)	> 100		> 100 µM (inactive)	> 100 µM (inactive)	> 100 µM (inactive)	> 100 µM (inactive)	> 100 µM (inactive)	> 100 µM (inactive)	> 100 µM (inactive)	> 100 µM (inactive)				
NC(=O)c1cc(C2OC(CO)C(O)C2O)nn1-c1ccc([N+](=O)[O-])cc1 (stereo unspecified)	> 100 µM (inactive)	> 100 µM (inactive)	> 100 µM (inactive)	> 100 µM (inactive)	> 10 µM (inactive)	> 100 µM (inactive)	> 100	> 100 µM (inactive)	> 100 µM (inactive)	> 100 µM (inactive)	> 100 µM (inactive)	> 100 µM (inactive)	> 100 µM (inactive)	> 100 µM (inactive)	> 100 µM (inactive)	> 100 µM (inactive)				
N=CCCN(CCC=N)c1ccc(/C=C2\CN(NC(=O)c3ccc(Cl)cc3)C(c3ccccc3)=N2)cc1	> 100 µM (inactive)	25.8 µM (inactive)	> 100 µM (inactive)	> 100 µM (inactive)	90.2 µM (inactive)	> 100 µM (inactive)	> 100	> 100 µM (inactive)	> 100 µM (inactive)	> 100 µM (inactive)	> 100 µM (inactive)	> 100 µM (inactive)	75 µM (inactive)	> 100 µM (inactive)	> 100 µM (inactive)	> 100 µM (inactive)				
COC(=O)C1=C(C)NC(C)=C(C(=O)OC)C1c1cccc(N=O)c1	31.8 µM (inactive)	17 µM (inactive)	16.3 µM (inactive)	8.38 µM (inactive)	16.7 µM (inactive)	11 µM (inactive)	17.8	7.69 µM (inactive)		10.6 µM (inactive)	75.5 µM (inactive)	16 µM (inactive)	17.4 µM (inactive)	4.76 µM (inactive)	15.6 µM (inactive)	3.85 µM (inactive)	5.41 µM (inactive)	17.8 µM (inactive)	13.3 µM (inactive)	11.6 µM (inactive)
COC(=O)[C@@H]1C2OC(C)(C)OC2CN1C(=O)OCc1ccccc1 (stereo partly specified)	> 100 µM (inactive)	> 100 µM (inactive)	> 100 µM (inactive)	> 100 µM (inactive)	> 100 µM (inactive)	> 100 µM (inactive)	> 100	> 100 µM (inactive)		> 100 µM (inactive)	> 100 µM (inactive)	> 100 µM (inactive)	> 100 µM (inactive)	> 100 µM (inactive)	> 100 µM (inactive)	> 100 µM (inactive)	> 100 µM (inactive)	> 100 µM (inactive)	> 100 µM (inactive)	> 100 µM (inactive)
C=CC(COC(=O)C(C)(C)OC(C)=O)c1ccc(OC(=O)C(C)C)c(OC)c1 (stereo unspecified)	19.8 µM (inactive)	3.59 µM (inactive)	18.2 µM (inactive)	7.69 µM (inactive)	7.38 µM (inactive)	4.05 µM (inactive)	2.03	2.73 µM (inactive)		1.96 µM (inactive)	11.1 µM (inactive)	2.62 µM (inactive)	3.17 µM (inactive)	3.62 µM (inactive)	9.62 µM (inactive)	4.6 µM (inactive)	2.56 µM (inactive)	9.68 µM (inactive)	3.52 µM (inactive)	3.84 µM (inactive)
O=C(O)CN(c1ccccc1)S(=O)(=O)c1ccc(Cl)cc1	> 100 µM (inactive)	> 100 µM (inactive)		> 100 µM (inactive)	> 100 µM (inactive)		> 100	> 100 µM (inactive)	> 100 µM (inactive)	> 100 µM (inactive)	> 100 µM (inactive)	> 100 µM (inactive)	> 100 µM (inactive)	> 100 µM (inactive)	> 100 µM (inactive)	> 100 µM (inactive)				
C[C@@H]1O[C@@H](O[C@H]2[C@H](Oc3cc(O)c4c(=O)cc(-c5ccc(O)cc5)oc4c3)O[C@H](CO)[C@@H](O)[C@@H]2O)[C@H](O)[C@H](O)[C@H]1O [RHOIFOLIN]	> 100 µM (inactive)	> 100 µM (inactive)		> 100 µM (inactive)	> 100 µM (inactive)	> 100 µM (inactive)	> 100	> 100 µM (inactive)	> 100 µM (inactive)	> 100 µM (inactive)	> 100 µM (inactive)	> 100 µM (inactive)	> 100 µM (inactive)	> 100 µM (inactive)	> 100 µM (inactive)	> 100 µM (inactive)				
